The values that follow come from patent US20060234910A1, “Methods for the treatment of insulin resistance and disease states characterized by insulin resistance” (priority 2005, published 2006).

One test relates to MINOR gene expression. The test is described as follows: Quantitative real-time PCR of MINOR gene expression in 3T3-L1 adipocytes. It is filed as cell-based. To be noted: for insulin-stimulated MINOR gene expression: 1 hour. As to the method:
(§1) FIGS. 3A-3C show the effect of insulin stimulation on MINOR and TR3 gene expression in 3T3-L1 adipocytes. FIGS. 3A and 3B show insulin induces the expression of MINOR and TR3 gene expression in 3T3-L1 adipocytes. Fully differentiated 3T3-L1 adipocytes were treated with 100 nM of insulin for up to 8 hours (treated) or 0 nM insulin (0 hour control). The control and treated adipocytes were lysed and the mRNAs were extracted for cDNA synthesis. Quantitative real-time PCR was used to measure expression of MINOR (FIG. 3A) and TR3 (FIG. 3B) genes. Results represent the mean±SE from three separate experiments. […] Fully differentiated 3T3-L1 adipocytes were treated with 100 nM of insulin alone (control) or plus LY294002 (PI 3-kinase inhibitor), SB203580 (p38 MAP kinase inhibitor), Ro318220 (protein kinase C inhibitor) for one hour. The control and treated adipocytes were lysed and the mRNAs were extracted for cDNAs synthesis. A quantitative real-time PCR was performed for detecting the expression levels of MINOR and TR3 genes. Results represent the mean±SE from three separate experiments.
(§2) Fully differentiated 3T3-L1 adipocytes were treated with 10 uM of the indicated thiazolidinedione (troglitazone or pioglizatone) from 0 to 48 hours. Control cells received vehicle alone. The control and treated adipocytes were lysed and the mRNAs were extracted for cDNA synthesis. Quantitative real-time PCR was used to measure expression levels of MINOR (FIGS. 4A and 4B) and TR3 (FIGS. 4C and 4D) genes. Results represent the mean±SE from three separate experiments.
(§3) Fully differentiated 3T3-L1 adipocytes were treated with 100 nM of insulin for various times (0 to 8 hours; the 0 hour time point served as the control and received no added insulin). The control and treated adipocytes were lysed and the mRNAs were extracted for cDNAs synthesis. A quantitative real-time PCR was performed for detecting the expression levels of MINOR and TR3 genes. […] Insulin also stimulated TR3 gene expression adipocytes, but with a different temporal response with TR3 expression levels returning to baseline by hour 2 after treatment (FIG. 3B).
(§4) The stimulatory effect of insulin on MINOR and TR3 gene expression was dependent on signal transduction via the PI-3-kinase pathway, the p38 MAP-K pathway and the protein kinase C (PKC) pathway. […] A quantitative real-time PCR was performed for detecting the expression levels of MINOR and TR3 genes. […]
(§5) Fully differentiated 3T3-L1 adipocytes were treated with 10 uM of the indicated thiazolidinedione (troglitazone or pioglizatone) from 0 to 48 hours. […] Quantitative real-time PCR was used to measure expression levels of MINOR (FIGS. 4A and 4B) and TR3 (FIGS. 4C and 4D) genes. […]
(In general: Quantitative PCR measures a nucleic acid by following its amplification.)

A further test deals with TR3 gene expression. The test is described as follows: Quantitative real-time PCR of TR3 gene expression in 3T3-L1 adipocytes. It is filed as cell-based. To be noted: for insulin-stimulated TR3 gene expression: 1 hour. As to the method: as §1, §2, §3, §4, §5
The test system of test [1] is MINOR gene expression in skeletal muscle. Description: cDNA microarray of skeletal muscle biopsies, basal vs hyperinsulinemia (MINOR). It is filed as in vivo, human. To be noted: insulin stimulation, three hours of hyperinsulinemia vs basal. The text has this: (§6) The primary target tissues for insulin action are skeletal muscle, adipose tissue, and the liver tissue. Skeletal muscle is the predominant target tissue for insulin-mediated glucose uptake (responsible for approximately 95% of glucose uptake), and is a critical locus of insulin resistance. Defects in glucose uptake in skeletal muscle is a predominate contributor to the clinical manifestations of insulin resistance. The molecular basis for insulin resistance is not well understood, but appears to involve defects in insulin signal transduction and abnormal cellular trafficking of glucose transporter proteins (5). To better understand the molecular defects responsible for human insulin resistance, skeletal muscle biopsies were obtained from volunteers in three metabolically-defined subgroups: A) insulin sensitive: (B) insulin resistant; and (C) type 2 diabetic. Biopsies from each subgroup were obtained under both basal conditions and after three hours of hyperinsulinemia. Differential gene expression in these muscle biopsies was assessed using cDNA microarray technology utilizing the Affymetrix Hu95A gene expression chips (carried out as per manufacturer's instructions). The effect of insulin on gene expression in human muscle has not been extensively studied, and most prior studies focused on single genes or small numbers of genes with a limited focus (6-8). […]

For another test, the system named is Nurr1 gene expression. Description: Nurr1 gene expression in 3T3-L1 adipocytes. In kind it is cell-based. To be noted: fully differentiated 3T3-L1 adipocytes, 100 nM insulin; data not shown.
Test [2] deals with TR3 gene expression in skeletal muscle. The test is described as follows: cDNA microarray of skeletal muscle biopsies, basal vs hyperinsulinemia (TR3). In kind it is in vivo, human. The conditions noted are these: insulin stimulation, three hours of hyperinsulinemia vs basal.
Source text: as §6

Test [3] relates to GLUT4 glucose transporters at plasma membrane. Description: Plasma membrane lawn assay of GLUT4 in adipocytes. In kind it is cell-based. The conditions noted are these: control (LacZ transfected) adipocytes, 100 nM insulin, 30 min vs basal. As to the method:
FIGS. 6A-6D show the effect of MINOR gene expression on insulin-mediated recruitment of GLUT4 glucose transporters to plasma membrane. MINOR gene transduced 3T3-L1 fibroblasts and control LacZ transduced fibroblasts were grown on glass cover slips and differentiated into adipocytes. Adipocytes were then stimulated for 30 min with (insulin-stimulated) or without (basal) 100 nM of insulin. The adipocytes were then washed, and disrupted by sonication leaving and plasma membrane sheets attached to cover slips (plasma membrane lawn assay) (26). Plasma membrane associated GLUT4 was detected using a polyclonal anti-GLUT4 antibody and a FITC-conjugated secondary antibody. (A) basal LacZ expressing adipocytes; (B) insulin-stimulated LacZ expressing adipocytes; (C) basal Minor expressing adipocytes; (D) insulin-stimulated Minor expressing adipocytes.
These experiments use the “plasma membrane lawn” technique (26) to quantify the relative amounts of GLUT4 glucose transporter proteins in the cell surface plasma membrane. MINOR gene transduced 3T3-L1 fibroblasts and control LacZ transduced fibroblasts were grown on glass cover slips and differentiated into adipocytes. […] Plasma membrane associated GLUT4 was detected using a polyclonal anti-GLUT4 antibody and a FITC-conjugated secondary antibody.

Where [4] appears, read: 3T3-L1 adipocytes, 100 nM insulin plus inhibitor 50 nM.
Setting [5] is: 3T3-L1 adipocytes, 100 nM insulin.
[6] abbreviates: fully differentiated 3T3-L1 adipocytes, 100 nM insulin, 0 to 8 hours.
Setting [7] is: 3T3-L1 adipocytes, 100 nM insulin plus inhibitor 10 nM.

A value given as a limit tells only on which side of the number the result lay.

In the case of `Cn1cc(C2=C(c3cn(CCCSC(=N)N)c4ccccc34)C(=O)NC2=O)c2ccccc21` [Ro318220, reference compound], the “insulin-stimulated MINOR gene expression” value in the test on MINOR gene expression (setting [4]) is “decreased the ability of insulin to stimulate”. In addition, the “insulin-stimulated TR3 gene expression” value in the test on TR3 gene expression (setting [4]) was “decreased the ability of insulin to stimulate”.
Consider insulin, for which the “period over which the increase in MINOR gene expression is sustained” value in the test on MINOR gene expression (setting [5]) was 4 h. Also, the MINOR gene expression entry with MINOR gene expression (setting [6]) is listed as “stimulated”. The “MINOR gene expression in human skeletal muscles (microarray)” value in test [1] is on record as “strongly induced”. In addition, the Nurr1 gene expression result in the test with Nurr1 gene expression is recorded as “not stimulated”. The “time at which TR3 expression levels return to baseline after treatment” value with TR3 gene expression (setting [5]) was no more than 2 h. In addition, the TR3 gene expression entry in the test on TR3 gene expression (setting [6]) is given as “stimulated”. Besides, the “TR3 gene expression in human skeletal muscles (microarray)” value in test [2] is on record as “strongly induced”. In test [3], the “plasma membrane associated GLUT4” value is given as “increased GLUT4 staining in the plasma membrane”.
On to `C[S+]([O-])c1ccc(-c2nc(-c3ccncc3)c(-c3ccc(F)cc3)[nH]2)cc1` (stereo not drawn) [SB203580, reference compound], for which the “insulin-stimulated MINOR gene expression” value in the test on MINOR gene expression (setting [7]) is recorded as “decreased the ability of insulin to stimulate”. In addition, the “insulin-stimulated TR3 gene expression” value in the test with TR3 gene expression (setting [7]) is given as “decreased the ability of insulin to stimulate”.
